These are literature values, as cited in US9617270B2, “Cytotoxic benzodiazepine derivatives” (priority 2012, dated 2017).

Molecules are shown by their SMILES.

For the data set the following is noted: Phase I clinical evaluation.

Take `C=C1C[C@H]2C=Nc3cc(OCCCOc4cc5c(cc4OC)C(=O)N4CC(=C)C[C@H]4C=N5)c(OC)cc3C(=O)N2C1` [SJG-136]: the adverse effects noted entry was “vascular leak syndrome, peripheral edema, liver toxicity and fatigue”; the maximum tolerated dose is recorded as 45 μg/m^2. For the same molecule, the “DNA damage in circulating lymphocytes” value (circulating lymphocytes) is reported as “noted at all doses”.
